Where “and” joins values, the source holds several entries; their conditions need not be identical. Equal values may be shown once. Inconclusive results and toxic doses are left out.
System: BDF1 mice, P815 leukemia ip, survival T/C
Assay: NCI In Vivo Anticancer Drug Screen. Data for tumor model P815 Mast Cell Leukemia (Ascitic) (intraperitoneal) in B6D2F1 (BDF1) mice
Details: higher = longer survival
Method: The antitumor activity of compounds was measured in mice bearing transplantable tumors. Survival or tumor size were measured and the results are expressed as the measurement made in the treated group (T) divided by the measurement made in the vehicle treated control group (C). The tumor model used in this assay is P815 Mast Cell Leukemia (Ascitic) (intraperitoneal) in B6D2F1 (BDF1) mice

[1] = endpoint: survival time, mean or median, dose: 5.0 mg/kg/injection, schedule: Q01DX010 (ip), vehicle: saline
[2] = endpoint: survival time, mean or median, dose: 10.0 mg/kg/injection, schedule: Q01DX010 (ip), vehicle: saline
[3] = endpoint: survival time, mean or median, dose: 54.0 mg/kg/injection, schedule: Q01DX010 (ip), vehicle: saline
[4] = endpoint: survival time, mean or median, dose: 20.0 mg/kg/injection, schedule: Q01DX010 (ip), vehicle: saline
[5] = endpoint: survival time, mean or median, dose: 40.0 mg/kg/injection, schedule: Q01DX010 (ip), vehicle: saline

Compound: CCCNC(=NC)c1ccc(NC(=O)c2ccc(C(=O)Nc3ccc(C(=NC)NCCC)cc3)cc2)cc1
- T/C (endpoint: survival time, mean or median, dose: 5.2 mg/kg/injection, schedule: Q01DX010 (ip), vehicle: saline): 121 % of control
- T/C (endpoint: survival time, mean or median, dose: 8.0 mg/kg/injection, schedule: Q01DX010 (ip), vehicle: saline): 121 % of control
- T/C (endpoint: survival time, mean or median, dose: 12.0 mg/kg/injection, schedule: Q01DX010 (ip), vehicle: saline): 121 % of control
- T/C (endpoint: survival time, mean or median, dose: 18.0 mg/kg/injection, schedule: Q01DX010 (ip), vehicle: saline): 100 % of control

Compound: Cc1cc2nc3c(=O)[nH]c(=O)nc-3n(CC(O)C(O)C(O)C(O)CO)c2cc1C (stereo not drawn)
- T/C (endpoint: survival time, mean or median, dose: 50.0 mg/kg/injection, schedule: Q01DX010 (ip), vehicle: saline): 100 % of control
- T/C (endpoint: survival time, mean or median, dose: 100.0 mg/kg/injection, schedule: Q01DX010 (ip), vehicle: saline): 100 % of control
- T/C (endpoint: survival time, mean or median, dose: 200.0 mg/kg/injection, schedule: Q01DX010 (ip), vehicle: saline): 88 % of control and 100 % of control
- T/C (endpoint: survival time, mean or median, dose: 400.0 mg/kg/injection, schedule: Q01DX010 (ip), vehicle: saline): 88 % of control

Compound: CCCCNc1ncnc2c1cnn2C
- T/C (endpoint: survival time, mean or median, dose: 31.25 mg/kg/injection, schedule: Q01DX010 (ip), vehicle: saline): 95 % of control and 100 % of control
- T/C (endpoint: survival time, mean or median, dose: 62.5 mg/kg/injection, schedule: Q01DX010 (ip), vehicle: saline): 108 % of control

Compound: NOCc1cscn1
- T/C (endpoint: median survival time, dose: 25.0 mg/kg/injection, schedule: Q01DX010 (ip), vehicle: saline sonified): 87 % of control
- T/C (endpoint: median survival time, dose: 50.0 mg/kg/injection, schedule: Q01DX010 (ip), vehicle: saline sonified): 100 % of control

Compound: C1CN1c1nc(N2CC2)nc(N2CC2)n1
- T/C (endpoint: survival time, mean or median, dose: 0.13 mg/kg/injection, schedule: Q01DX010 (ip), vehicle: saline): 111 % of control
- T/C (endpoint: survival time, mean or median, dose: 0.25 mg/kg/injection, schedule: Q01DX010 (ip), vehicle: saline): 111 % of control
- T/C (endpoint: survival time, mean or median, dose: 125.0 micrograms/kg/injection, schedule: Q01DX010 (ip), vehicle: saline): 100 % of control
- T/C (endpoint: survival time, mean or median, dose: 250.0 micrograms/kg/injection, schedule: Q01DX010 (ip), vehicle: saline): 105 % of control
- T/C (endpoint: survival time, mean or median, dose: 1000.0 micrograms/kg/injection, schedule: Q01DX010 (ip), vehicle: saline): 94 % of control

Compound: N#[N+]c1cnc([O-])[nH]c1=O
- T/C (endpoint: survival time, mean or median, dose: 1.25 mg/kg/injection, schedule: Q01DX010 (ip), vehicle: saline): 150 % of control
- T/C (endpoint: survival time, mean or median, dose: 2.5 mg/kg/injection, schedule: Q01DX010 (ip), vehicle: saline): 205 % of control
- T/C [1]: 215 % of control and 150 % of control
- T/C [2]: 205 % of control and 161 % of control

Compound: Nc1nc(N)c2nc(CNc3ccc(C(=O)NC(CCC(=O)O)C(=O)O)cc3)cnc2n1 (stereo not drawn)
- T/C (endpoint: survival time, mean or median, dose: 0.03 mg/kg/injection, schedule: Q01DX010 (ip), vehicle: other): 102 % of control and 105 % of control
- T/C (endpoint: survival time, mean or median, dose: 0.05 mg/kg/injection, schedule: Q01DX010 (ip), vehicle: other): 100 % of control and 102 % of control
- T/C (endpoint: survival time, mean or median, dose: 0.1 mg/kg/injection, schedule: Q01DX010 (ip), vehicle: other): 100 % of control and 108 % of control
- T/C (endpoint: survival time, mean or median, dose: 0.2 mg/kg/injection, schedule: Q01DX010 (ip), vehicle: other): 105 % of control and 108 % of control

Compound: O=C(Nc1cccc(C(=O)Nc2ccc(C3=NCCN3)cc2)c1)c1ccc(C2=NCCN2)cc1
- T/C [3]: 112 % of control

Compound: N=C(N)SCc1c2ccccc2c(CSC(=N)N)c2ccccc12
- T/C [1]: 162 % of control
- T/C [2]: 175 % of control and 200 % of control
- T/C [4]: 150 % of control
- T/C [5]: 150 % of control

Compound: CN(C)[C@@H]1C(=O)C(C(N)=O)=C(O)[C@@]2(O)C(=O)C3=C(O)c4c(O)cccc4C[C@H]3C[C@@H]12
- T/C (endpoint: survival time, mean or median, dose: 30.0 mg/kg/injection, schedule: Q01DX015 (ip), vehicle: alkali diluted with saline): 117 % of control

Compound: CN(C)c1ccc(Nc2c3ccccc3nc3ccccc23)cc1
- T/C (endpoint: survival time, mean or median, dose: 36.0 mg/kg/injection, schedule: Q01DX010 (ip), vehicle: saline): 105 % of control and 122 % of control
- T/C [3]: 120 % of control and 122 % of control
- T/C (endpoint: survival time, mean or median, dose: 80.0 mg/kg/injection, schedule: Q01DX010 (ip), vehicle: saline): 166 % of control
- T/C (endpoint: survival time, mean or median, dose: 120.0 mg/kg/injection, schedule: Q01DX010 (ip), vehicle: saline): 111 % of control

Compound: CN(C)c1ccc(/C=C/c2ccnc3ccccc23)cc1
- T/C [1]: 100 % of control
- T/C [2]: 88 % of control and 94 % of control
- T/C [4]: 88 % of control and 100 % of control
- T/C [5]: 100 % of control

Compound: CNc1nc(Nc2ccc(C3=NCCN3)cc2)nc(Nc2ccc(C3=NCCN3)cc2)n1
- T/C (endpoint: survival time, mean or median, dose: 13.3 mg/kg/injection, schedule: Q01DX010 (ip), vehicle: saline): 108 % of control
- T/C [4]: 108 % of control
- T/C (endpoint: survival time, mean or median, dose: 30.0 mg/kg/injection, schedule: Q01DX010 (ip), vehicle: saline): 108 % of control
- T/C (endpoint: survival time, mean or median, dose: 45.0 mg/kg/injection, schedule: Q01DX010 (ip), vehicle: saline): 116 % of control

From PubChem BioAssay AID318 (DTP/NCI, 2004)
